Measured values taken from PubChem BioAssay (NCI).
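Compound exposure: 48 hours, 5 concentrations, 96-well plates. GI50 marks 50% less growth. TGI marks complete inhibition of growth.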

Columns and labels:
Test in all cases: NCI-60 cell line screen, 48 h
LOX IMVI melanoma = tested on: LOX IMVI melanoma
UACC-257 melanoma = tested on: UACC-257 melanoma
ACHN renal = tested on: ACHN renal
NCI-H460 lung = tested on: NCI-H460 lung
UO-31 renal = tested on: UO-31 renal
IGROV1 ovarian = tested on: IGROV1 ovarian
SK-MEL-5 melanoma = tested on: SK-MEL-5 melanoma
U251 CNS = tested on: U251 CNS
HCT-15 colon = tested on: HCT-15 colon
NCI/ADR-RES ovarian = tested on: NCI/ADR-RES ovarian

Row | SMILES | TGI (LOX IMVI melanoma) | TGI (UACC-257 melanoma) | TGI (ACHN renal) | TGI (NCI-H460 lung) | TGI (UO-31 renal) | TGI (IGROV1 ovarian) | TGI (SK-MEL-5 melanoma) | TGI (U251 CNS) | TGI (HCT-15 colon) | GI50 (LOX IMVI melanoma) | GI50 (UACC-257 melanoma) | GI50 (ACHN renal) | GI50 (NCI-H460 lung) | GI50 (UO-31 renal) | GI50 (IGROV1 ovarian) | GI50 (SK-MEL-5 melanoma) | GI50 (U251 CNS) | GI50 (HCT-15 colon) | GI50 (NCI/ADR-RES ovarian) | TGI (NCI/ADR-RES ovarian)
1 | O=C1N[C@@H](O)[C@@H]2ON=C(c3ccccc3)[C@H]12 | > 100 µM | > 100 µM | > 100 µM | > 100 µM | > 100 µM | > 100 µM | > 100 µM | > 100 µM | > 100 µM |  |  |  |  |  |  |  |  |  |  | 
2 | O=C1c2ccccc2-c2c1c1ccccc1c(=O)n2CCNCCCNCCn1c2c(c3ccccc3c1=O)C(=O)c1ccccc1-2 | 0.331 µM | 2.91 µM | 0.699 µM | > 50 µM | 1 µM | > 50 µM | 7.9 µM | 0.371 µM | 0.334 µM | 0.0461 µM | 1.17 µM | 0.00672 µM | < 0.005 µM | 0.221 µM | 1.19 µM | 1.75 µM | 0.146 µM | 0.0221 µM |  | 
3 | O=C(Nc1ccc(S(=O)(=O)N[C@@H](C(=O)O)c2ccccc2)cc1)c1ccc(F)cc1 | > 100 µM | > 100 µM | > 100 µM | > 100 µM | > 100 µM | > 100 µM | > 100 µM | > 100 µM | > 100 µM |  |  |  |  |  |  |  |  |  |  | 
4 | COc1cc(/C=C/C(=N\NC(=O)c2ccccc2)c2sc(Nc3ccc(Cl)c(Cl)c3)nc2C)ccc1O | 44.9 µM | > 100 µM | 87.2 µM | > 100 µM | 77.7 µM | > 100 µM |  | 88.9 µM | > 100 µM |  |  |  |  |  |  |  |  |  |  | 
5 | CCOC(=O)Cc1nc(/C(C#N)=C/c2ccco2)[nH]c(=O)c1C#N | > 100 µM | > 100 µM | > 100 µM | > 100 µM | > 100 µM | > 100 µM | > 100 µM | > 100 µM | > 100 µM |  |  |  |  |  |  |  |  |  |  | 
6 | COc1ccc(C2C(N)=NCC2c2ccccn2)cc1 (stereo not drawn) | > 100 µM | > 100 µM | > 100 µM | > 100 µM | > 100 µM | > 100 µM | > 100 µM | > 100 µM |  |  |  |  |  |  |  |  |  |  |  | 
7 | O=C1CCn2c([nH]c3cccc4cccc2c43)=N1 | > 100 µM | > 100 µM | > 100 µM | > 100 µM | > 100 µM | > 100 µM | > 100 µM | > 100 µM | > 100 µM |  |  |  |  |  |  |  |  |  |  | 
8 | COc1ccc(/C=C/C(=O)c2sc(-n3nc(-c4ccccc4)cc3-c3ccccc3)nc2C)cc1OC | 96.6 µM | > 100 µM | > 100 µM | > 100 µM | > 100 µM | > 100 µM |  | > 100 µM | > 100 µM |  |  |  |  |  |  |  |  |  |  | 
9 | CC1CCCC(C(=O)/C(=C/c2cccc(Cl)c2)C(=O)C(=O)O)C1 (stereo not drawn) |  | > 100 µM | > 100 µM | > 100 µM | > 100 µM | 83.5 µM | > 100 µM | 32.5 µM | 28.2 µM |  |  |  |  |  |  |  |  |  |  | 
10 | NC1=NC(=O)C(CC(=O)Nc2ccc([N+](=O)[O-])cc2[N+](=O)[O-])S1 (stereo not drawn) | > 100 µM | > 100 µM | > 100 µM | > 100 µM | > 100 µM | > 100 µM | > 100 µM | > 100 µM |  |  |  |  |  |  |  |  |  |  |  | 
11 | Cn1c(N)nc2c(nc(OCc3ccccc3)n2C2OC(CO)C(O)C2O)c1=O (stereo not drawn) | > 100 µM | > 100 µM | > 100 µM | > 100 µM | > 100 µM | > 100 µM | > 100 µM | > 100 µM |  |  |  |  |  |  |  |  |  |  |  | 
12 | Cc1sc(C)c(-c2ccc(CO)o2)c1-c1ccc(CO)o1 | > 100 µM |  | > 100 µM | > 100 µM | > 100 µM | 0.472 µM | > 100 µM | > 100 µM | > 100 µM | 94.3 µM |  | 64.2 µM | 0.124 µM | 28.8 µM | 0.077 µM | > 61.5 µM | 14.5 µM | > 76.6 µM | > 84.4 µM | > 100 µM
13 | CC(O)CN1C(=O)NC(Cc2ccccc2)C1=O (stereo not drawn) | > 100 µM | > 100 µM | > 100 µM | > 100 µM | > 100 µM |  |  | > 100 µM |  |  |  |  |  |  |  |  |  |  |  | 
14 | CN1CCN(C)C1c1cccc(C2N(C)CCN2C)c1 | > 100 µM |  | > 100 µM | > 100 µM | > 100 µM | > 100 µM |  | > 100 µM | > 100 µM |  |  |  |  |  |  |  |  |  |  | 
15 | CC1(C)CCc2cc3c(cc2O1)OCCC3=O | > 100 µM | > 100 µM | > 100 µM | > 100 µM | > 100 µM | > 100 µM | > 100 µM | > 100 µM | > 100 µM |  |  |  |  |  |  |  |  |  |  | 
16 | CC1(C)OC(=O)C=C([O-])O1.CC1(C)OC(=O)C=C([O-])O1.O=c1c(O)c(-c2ccc([O-])cc2[O-])oc2cc(O)cc(O)c12.[Ti+4] | > 100 µM | > 100 µM | > 100 µM | > 100 µM | 90.5 µM | > 100 µM | > 100 µM |  | > 100 µM |  |  |  |  |  |  |  |  |  |  | 
17 | O=C1c2ccccc2-c2cccc3ccc(Cc4ccccc4)c1c23 |  | > 100 µM | > 100 µM | > 100 µM | > 100 µM | > 100 µM | > 100 µM | > 100 µM | > 100 µM |  |  |  |  |  |  |  |  |  |  | 
18 | CC/C=C\C/C=C\C1CC(=O)NCCCNCCCCN1 (stereo not drawn) | > 100 µM | > 100 µM |  | > 100 µM | > 100 µM |  | > 100 µM | > 100 µM |  |  |  |  |  |  |  |  |  |  |  | 
19 | CC(=O)OCCOCBr | > 100 µM | > 100 µM | > 100 µM | > 100 µM | > 100 µM | > 100 µM | > 100 µM | > 100 µM | > 100 µM |  |  |  |  |  |  |  |  |  |  | 
20 | CC1=Nc2c(ccc3c2C(=O)c2ccccc2C3=O)NC(c2ccncc2)C1 (stereo not drawn) | > 100 µM | > 100 µM | > 100 µM | > 100 µM | > 100 µM | > 100 µM | > 100 µM | > 100 µM | > 100 µM |  | > 100 µM | 23.5 µM | > 100 µM |  |  |  | > 100 µM |  |  | 
21 | O=c1c2ccccc2c2c3c1cccc3c1cccc3c(=O)c4ccccc4c2c31 | > 100 µM | > 100 µM | > 100 µM | > 100 µM | > 100 µM | > 100 µM | > 100 µM | > 100 µM | > 100 µM |  |  |  |  |  |  |  |  |  |  | 
22 | C=C(COC(C)=O)CC(/C=C(\C)CCC=C(C)C)OC(C)=O (stereo not drawn) | > 100 µM |  | > 100 µM | > 100 µM | > 100 µM | > 100 µM | > 100 µM | > 100 µM | > 100 µM |  |  |  |  |  |  |  |  |  |  | 
